Data: publication PMC8152814, “The modulatory role of sulfated and non-sulfated small molecule heparan sulfate-glycomimetics in endothelial dysfunction: absolute structural clarification, molecular docking and simulated dynamics, SAR analyses and ADMET studies” (RSC Medicinal Chemistry, 2021)
Like-named read-outs stand apart in the source and are kept apart here.

How the values were obtained:
[1] = Turbidimetric kinetic aqueous solubility; format: physicochemical
Method: Physicochemical and ADMET properties of representative glycomimetics. […] The cells were incubated for 30 min in Hepes-buffered solution containing 10 μmol/L dihydroethidium (DHE), which intercalates with DNA in the presence of ROS and is detectable by fluorescence. Cells were counterstained with the nuclear stain DAPI at 0.3 μmol/L. In the following 24 h, the cell cultures were examined using a fluorescence microscope (Leica DMIRB). Sections were photographed and fluorescence was quantified using ImageJ. All parameters (pinhole, contrast, gain and offset) were held constant for all sections from the same experiment. ROS production was estimated from the ratio of ethidium/DAPI fluorescence.S6 Western blot analysis HepG2 wells were lysed in RIPA buffer containing proteinase inhibitors and the total protein was quantified using BCA protein assay kit (Pierce Biotechnology). Proteins (30 μg/well) were denatured and separated by sodium dodecyl sulfate (SDS)-polyacrylamide gel electrophoresis and transferred to polyvinylidene difluoride (PVDF) membranes. Blots were blocked for 1 h in 5% semi-skimmed milk/Tris-Buffered Saline Tween-20 (TBS-T), probed with primary rabbit anti-phospho-protein kinase B (Akt), rabbit anti-Akt (Santa Cruz Biotechnology), rabbit polyclonal anti-phospho-eNOS (Cell Signaling) overnight at 4 °C followed by washing and incubation with the corresponding horse radish peroxidase-labelled secondary antibody for 1 h at room temperature. After washing with TBS-T, membranes were incubated with ECL reagent and visualized (Amersham Pharmacia Biotech). Densitometry analysis using ImageJ© (version 1.32j, NIH) was used to quantify the protein signal.S7 Turbidimetric Aqueous Solubility Test compound (10 mM in DMSO) was serially diluted to give solutions of 0.1, 0.3, 1 and 3 mM in DMSO. Each test compound concentration was then further diluted 1 in 100 in buffer (typically 0.01 M phosphate buffered saline pH 7.4) so that the final DMSO concentration is 1 % and the final test compound concentrations are 1, 3, 10, 30 and 100 µM. The experiment is performed at 37 °C and each concentration is incubated in 7 replicate wells. The plates are incubated for 2 h at 37 °C before the absorbance is measured at 620nm. Nicardipine (pH dependent) and pyrene (pH independent) are included as control compounds. The solubility is estimated from the concentration of test compound that produces an increase in absorbance above vehicle control (1% DMSO in buffer). S11

hERG = molecular target: T1, hERG (Homo sapiens, UniProt Q12809); assay: hERG automated patch clamp (IonWorks, CHO-hERG cells); format: cell-based; conditions: CHO cells stably transfected with hERG, top concentration 25 µM
T1 construct: host or cells: CHO cells stably transfected with hERG
Method: Physicochemical and ADMET properties of representative glycomimetics. […] The final incubation volume is 50 µL. […] Two control compounds are included with each species. All incubations are performed singularly for each test compound. […] The control (minus NADPH) is incubated for 45 min. […] The cells are then positioned over a small hole at the bottom of each well by applying a vacuum beneath the plate to form an electrical seal. The vacuum is applied through a single compartment common to all wells which is filled with intracellular solution (buffered to pH 7.2 with HEPES). The resistance of each seal is measured via a common ground-electrode in the intracellular compartment and individual electrodes placed into each of the upper wells. Electrical access to the cell is then achieved by circulating a perforating agent, amphotericin B, underneath the PatchPlateTM. The pre-compound hERG current is then measured. An electrode is positioned in the extracellular compartment and a holding potential of -80 mV applied for 15 s. The hERG channels are then activated by applying a depolarising step to +40 mV for 5 s and then clamped at -50 mV for 4 s to elicit the hERG tail current, before returning to -80 mV for 0.3 s. […]

[2] = phosphate buffered saline, turbidimetric assay, PBS pH 7.4, 37 °C, 2 h, read-out: Kinetic solubility

T1 sequence (Q12809 whole entry): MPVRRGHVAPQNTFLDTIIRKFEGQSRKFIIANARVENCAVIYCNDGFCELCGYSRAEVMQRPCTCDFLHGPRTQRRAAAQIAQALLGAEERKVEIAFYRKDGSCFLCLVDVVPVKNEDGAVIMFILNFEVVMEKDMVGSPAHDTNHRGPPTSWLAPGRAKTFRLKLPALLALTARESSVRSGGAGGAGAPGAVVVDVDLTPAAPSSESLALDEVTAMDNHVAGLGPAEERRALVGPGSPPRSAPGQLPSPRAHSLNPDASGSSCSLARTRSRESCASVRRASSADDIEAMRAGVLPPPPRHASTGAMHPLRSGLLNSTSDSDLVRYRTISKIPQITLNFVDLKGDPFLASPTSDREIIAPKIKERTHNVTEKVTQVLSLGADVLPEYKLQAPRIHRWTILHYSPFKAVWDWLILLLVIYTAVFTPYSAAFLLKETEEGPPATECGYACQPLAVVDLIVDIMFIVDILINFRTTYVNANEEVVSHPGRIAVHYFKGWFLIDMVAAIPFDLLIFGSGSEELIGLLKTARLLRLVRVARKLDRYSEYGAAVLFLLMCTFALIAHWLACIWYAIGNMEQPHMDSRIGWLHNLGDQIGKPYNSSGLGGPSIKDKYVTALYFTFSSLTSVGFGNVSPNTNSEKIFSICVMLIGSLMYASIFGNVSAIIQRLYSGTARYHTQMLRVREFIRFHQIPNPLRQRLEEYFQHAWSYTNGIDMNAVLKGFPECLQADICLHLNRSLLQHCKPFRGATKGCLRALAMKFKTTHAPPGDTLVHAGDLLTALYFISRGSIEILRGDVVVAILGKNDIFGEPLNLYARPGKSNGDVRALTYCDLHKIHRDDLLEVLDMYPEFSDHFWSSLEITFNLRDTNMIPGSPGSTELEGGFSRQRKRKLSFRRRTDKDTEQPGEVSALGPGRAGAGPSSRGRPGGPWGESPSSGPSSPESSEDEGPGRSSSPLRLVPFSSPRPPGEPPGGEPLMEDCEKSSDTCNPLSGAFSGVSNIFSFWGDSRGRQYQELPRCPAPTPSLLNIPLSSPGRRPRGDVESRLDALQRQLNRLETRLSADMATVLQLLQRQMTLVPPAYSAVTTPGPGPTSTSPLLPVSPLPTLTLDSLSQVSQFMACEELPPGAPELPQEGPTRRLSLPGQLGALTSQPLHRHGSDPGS

`COC(=O)c1cc(OC[C@@H](COS(=O)(=O)[O-])OS(=O)(=O)[O-])ccc1OCC(COS(=O)(=O)[O-])OS(=O)(=O)[O-].[Na+].[Na+].[Na+].[Na+]` (mixture of isomers) [α-4, sodium 3-(4-((S)-2,3-bis(sulfonatooxy)propoxy)-2-(methoxycarbonyl)phenoxy)propane-1,2-diyl bis(sulfate)] gave a solubility kinetic at 2 h [1, 2] greater than 100 µM.
For `O=C([O-])c1cc(OC[C@H](COS(=O)(=O)[O-])OS(=O)(=O)[O-])ccc1OCC(COS(=O)(=O)[O-])OS(=O)(=O)[O-].[Na+].[Na+].[Na+].[Na+].[Na+]` (mixture of isomers) [β-5, sodium 5-((R)-2,3-bis(sulfonatooxy)propoxy)-2-(2,3-bis(sulfonatooxy)propoxy)benzoate], the solubility kinetic at 2 h [1, 2] was greater than 100 µM and the IC50 (hERG) was greater than 25 µM.
Molecule `COC(=O)c1cc(OC[C@H](COS(=O)(=O)[O-])OS(=O)(=O)[O-])ccc1OCCCCOS(=O)(=O)[O-].[Na+].[Na+].[Na+]` [Compound R-10, sodium (R)-3-(3-(methoxycarbonyl)-4-(4-(sulfonatooxy)butoxy)phenoxy)propane-1,2-diyl bis(sulfate)] has a solubility kinetic at 2 h [1, 2] greater than 100 µM and an IC50 at 300 s (hERG; human, pH 7.2) greater than 25 µM.
`COC(=O)c1cc(OC[C@@H](COS(=O)(=O)[O-])OS(=O)(=O)[O-])ccc1OCCCCOS(=O)(=O)[O-].[Na+].[Na+].[Na+]` [Compound S-10, sodium (S)-3-(3-(methoxycarbonyl)-4-(4-(sulfonatooxy)butoxy)phenoxy)propane-1,2-diyl bis(sulfate)] gave a solubility kinetic at 2 h ([1]; pH 7.4) greater than 100 µM.
